Results from PubChem BioAssay (NCI).
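All cell lines were grown in 96-well plates and treated with compound for 48 hours. Here, GI50 denotes the concentration required for 50% inhibition of growth. TGI: total growth inhibition.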

Key:
Test in all cases: NCI tumour cell line growth inhibition, 48 h
786-0 renal = tested on: 786-0 renal
A549 NSCLC = tested on: A549 NSCLC
ACHN renal = tested on: ACHN renal
BT-549 breast = tested on: BT-549 breast
CAKI-1 renal = tested on: CAKI-1 renal
COLO 205 colon = tested on: COLO 205 colon
DU-145 prostate = tested on: DU-145 prostate
EKVX NSCLC = tested on: EKVX NSCLC
HCC-2998 colon = tested on: HCC-2998 colon
HCT-116 colon = tested on: HCT-116 colon
HCT-15 colon = tested on: HCT-15 colon
HOP-62 NSCLC = tested on: HOP-62 NSCLC
HT29 colon = tested on: HT29 colon
IGROV1 ovarian = tested on: IGROV1 ovarian
K-562 leukemia = tested on: K-562 leukemia
KM12 colon = tested on: KM12 colon
LOX IMVI melanoma = tested on: LOX IMVI melanoma
M14 melanoma = tested on: M14 melanoma
MALME-3M melanoma = tested on: MALME-3M melanoma
MCF7 breast = tested on: MCF7 breast
MDA-MB-231 breast = tested on: MDA-MB-231 breast
MDA-MB-435 = tested on: MDA-MB-435
MOLT-4 leukemia = tested on: MOLT-4 leukemia
NCI-H226 lung = tested on: NCI-H226 lung
NCI-H23 lung = tested on: NCI-H23 lung
NCI-H460 lung = tested on: NCI-H460 lung
NCI/ADR-RES ovarian = tested on: NCI/ADR-RES ovarian
OVCAR-3 ovarian = tested on: OVCAR-3 ovarian
OVCAR-4 ovarian = tested on: OVCAR-4 ovarian
OVCAR-5 ovarian = tested on: OVCAR-5 ovarian
OVCAR-8 ovarian = tested on: OVCAR-8 ovarian
PC-3 prostate = tested on: PC-3 prostate
RPMI-8226 leukemia = tested on: RPMI-8226 leukemia
SF-268 CNS = tested on: SF-268 CNS
SF-295 CNS = tested on: SF-295 CNS
SF-539 CNS = tested on: SF-539 CNS
SK-MEL-2 melanoma = tested on: SK-MEL-2 melanoma
SK-MEL-28 melanoma = tested on: SK-MEL-28 melanoma
SK-MEL-5 melanoma = tested on: SK-MEL-5 melanoma
SK-OV-3 ovarian = tested on: SK-OV-3 ovarian
SNB-19 CNS = tested on: SNB-19 CNS
SR leukemia = tested on: SR leukemia
SW-620 colon = tested on: SW-620 colon
T-47D breast = tested on: T-47D breast
TK-10 renal = tested on: TK-10 renal
U251 CNS = tested on: U251 CNS
UACC-257 melanoma = tested on: UACC-257 melanoma
UACC-62 melanoma = tested on: UACC-62 melanoma
UO-31 renal = tested on: UO-31 renal
CCRF-CEM leukemia = tested on: CCRF-CEM leukemia
HOP-92 NSCLC = tested on: HOP-92 NSCLC
NCI-H522 lung = tested on: NCI-H522 lung
RXF 393 renal = tested on: RXF 393 renal
SN12C renal = tested on: SN12C renal
SNB-75 CNS = tested on: SNB-75 CNS

CC1CCN(C(C)C)P(=S)(Cc2ccccc2)O1 (stereo unspecified)
TGI (786-0 renal): > 100 µM | TGI (A549 NSCLC): > 100 µM | TGI (ACHN renal): > 100 µM | TGI (BT-549 breast): > 100 µM | TGI (CAKI-1 renal): > 100 µM | TGI (COLO 205 colon): > 100 µM | TGI (DU-145 prostate): > 100 µM | TGI (EKVX NSCLC): > 100 µM | TGI (HCC-2998 colon): > 100 µM | TGI (HCT-116 colon): > 100 µM | TGI (HCT-15 colon): > 100 µM | TGI (HOP-62 NSCLC): > 100 µM | TGI (HT29 colon): > 100 µM | TGI (IGROV1 ovarian): > 100 µM | TGI (K-562 leukemia): > 100 µM | TGI (KM12 colon): > 100 µM | TGI (LOX IMVI melanoma): > 100 µM | TGI (M14 melanoma): > 100 µM | TGI (MALME-3M melanoma): > 100 µM | TGI (MCF7 breast): > 100 µM | TGI (MDA-MB-231 breast): > 100 µM | TGI (MDA-MB-435): > 100 µM | TGI (MOLT-4 leukemia): > 100 µM | TGI (NCI-H226 lung): > 100 µM | TGI (NCI-H23 lung): > 100 µM | TGI (NCI-H460 lung): > 100 µM | TGI (NCI/ADR-RES ovarian): > 100 µM | TGI (OVCAR-3 ovarian): > 100 µM | TGI (OVCAR-4 ovarian): > 100 µM | TGI (OVCAR-5 ovarian): > 100 µM | TGI (OVCAR-8 ovarian): > 100 µM | TGI (PC-3 prostate): > 100 µM | TGI (RPMI-8226 leukemia): > 100 µM | TGI (SF-268 CNS): > 100 µM | TGI (SF-295 CNS): > 100 µM | TGI (SF-539 CNS): > 100 µM | TGI (SK-MEL-2 melanoma): > 100 µM | TGI (SK-MEL-28 melanoma): 40 µM | TGI (SK-MEL-5 melanoma): > 100 µM | TGI (SK-OV-3 ovarian): > 100 µM | TGI (SNB-19 CNS): > 100 µM | TGI (SR leukemia): > 100 µM | TGI (SW-620 colon): > 100 µM | TGI (T-47D breast): 56.8 µM | TGI (TK-10 renal): > 100 µM | TGI (U251 CNS): > 100 µM | TGI (UACC-257 melanoma): > 100 µM | TGI (UACC-62 melanoma): > 100 µM | TGI (UO-31 renal): > 100 µM

CSc1cc([C@@H]2C[C@H]2c2ccc(Cl)cc2)on1
GI50 (786-0 renal): 15 µM | TGI (786-0 renal): 55.3 µM | GI50 (A549 NSCLC): 21.6 µM | TGI (A549 NSCLC): > 100 µM | GI50 (ACHN renal): 13.9 µM | TGI (ACHN renal): > 100 µM | GI50 (BT-549 breast): 23.9 µM | TGI (BT-549 breast): 62 µM | GI50 (CAKI-1 renal): 12.5 µM | TGI (CAKI-1 renal): 35.7 µM | GI50 (CCRF-CEM leukemia): 20.3 µM | TGI (CCRF-CEM leukemia): 47.2 µM | GI50 (COLO 205 colon): 23.9 µM | TGI (COLO 205 colon): > 100 µM | GI50 (DU-145 prostate): 19.6 µM | TGI (DU-145 prostate): 42 µM | GI50 (EKVX NSCLC): 29.8 µM | TGI (EKVX NSCLC): 55.8 µM | GI50 (HCC-2998 colon): 1.25 µM | TGI (HCC-2998 colon): 15 µM | GI50 (HCT-116 colon): 17.4 µM | TGI (HCT-116 colon): 67.8 µM | GI50 (HCT-15 colon): 10.8 µM | TGI (HCT-15 colon): 36.9 µM | GI50 (HOP-62 NSCLC): 13.8 µM | TGI (HOP-62 NSCLC): 41.8 µM | GI50 (HOP-92 NSCLC): 7.97 µM | TGI (HOP-92 NSCLC): 27.3 µM | GI50 (HT29 colon): 18.6 µM | TGI (HT29 colon): > 100 µM | GI50 (IGROV1 ovarian): 14.8 µM | TGI (IGROV1 ovarian): > 100 µM | GI50 (K-562 leukemia): 35.1 µM | TGI (K-562 leukemia): > 100 µM | GI50 (KM12 colon): 14.5 µM | TGI (KM12 colon): 30.3 µM | GI50 (LOX IMVI melanoma): 3.99 µM | TGI (LOX IMVI melanoma): 19.9 µM | GI50 (M14 melanoma): 9.27 µM | TGI (M14 melanoma): > 100 µM | GI50 (MCF7 breast): 16.3 µM | TGI (MCF7 breast): 41 µM | GI50 (MDA-MB-231 breast): 5.51 µM | TGI (MDA-MB-231 breast): 21.7 µM | GI50 (MDA-MB-435): 16.8 µM | TGI (MDA-MB-435): 45.1 µM | GI50 (MOLT-4 leukemia): 28.6 µM | TGI (MOLT-4 leukemia): > 100 µM | GI50 (NCI-H226 lung): 11.4 µM | TGI (NCI-H226 lung): 36.8 µM | GI50 (NCI-H23 lung): 3.98 µM | TGI (NCI-H23 lung): 18.1 µM | GI50 (NCI-H460 lung): 19 µM | TGI (NCI-H460 lung): 43 µM | GI50 (NCI-H522 lung): 6.91 µM | TGI (NCI-H522 lung): 45.9 µM | GI50 (NCI/ADR-RES ovarian): 13.6 µM | TGI (NCI/ADR-RES ovarian): 42.4 µM | GI50 (OVCAR-3 ovarian): 15.4 µM | TGI (OVCAR-3 ovarian): 33.4 µM | GI50 (OVCAR-4 ovarian): 31.3 µM | TGI (OVCAR-4 ovarian): > 100 µM | GI50 (OVCAR-5 ovarian): 14.5 µM | TGI (OVCAR-5 ovarian): 35.2 µM | GI50 (OVCAR-8 ovarian): 12.3 µM | TGI (OVCAR-8 ovarian): 46.1 µM | GI50 (PC-3 prostate): 16 µM | TGI (PC-3 prostate): 33.6 µM | GI50 (RPMI-8226 leukemia): 22.7 µM | TGI (RPMI-8226 leukemia): 44.8 µM | GI50 (RXF 393 renal): 2.14 µM | TGI (RXF 393 renal): 12.6 µM | GI50 (SF-268 CNS): 21 µM | TGI (SF-268 CNS): 46.3 µM | GI50 (SF-295 CNS): 34.1 µM | TGI (SF-295 CNS): 69.2 µM | GI50 (SK-MEL-2 melanoma): 25.2 µM | TGI (SK-MEL-2 melanoma): 82.3 µM | GI50 (SK-MEL-28 melanoma): 24.5 µM | TGI (SK-MEL-28 melanoma): 96.7 µM | GI50 (SK-OV-3 ovarian): 50.6 µM | TGI (SK-OV-3 ovarian): > 100 µM | GI50 (SN12C renal): 5.17 µM | TGI (SN12C renal): 20.5 µM | GI50 (SNB-19 CNS): 27.4 µM | TGI (SNB-19 CNS): > 100 µM | GI50 (SNB-75 CNS): 21.3 µM | TGI (SNB-75 CNS): 49.5 µM | GI50 (SW-620 colon): 20.7 µM | TGI (SW-620 colon): 59.8 µM | GI50 (T-47D breast): 22.2 µM | TGI (T-47D breast): > 100 µM | GI50 (TK-10 renal): 12.5 µM | TGI (TK-10 renal): 31.5 µM | GI50 (U251 CNS): 9.24 µM | TGI (U251 CNS): 32.3 µM | GI50 (UACC-257 melanoma): 15.8 µM | TGI (UACC-257 melanoma): 35.6 µM | GI50 (UACC-62 melanoma): 11.3 µM | TGI (UACC-62 melanoma): 24.7 µM | GI50 (UO-31 renal): 21.6 µM | TGI (UO-31 renal): > 100 µM
